This is an account of results in patent publication US8088791B2, “Antibacterial agents” (Biots Scientific Management Pty Ltd, priority 2006, dated 2012).

In one assay the test system is Bacillus subtilis 168CA. The assay is described as follows: Minimum Inhibitory Concentration (MIC) testing, broth microdilution, Bacillus subtilis. It is filed as cell-based. Conditions: Bacillus subtilis 168CA; for MIC: read-out: Bacillus subtilis MICs Activity. In outline:
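MICs were scored A (≦8 μg/ml), B (16–64 μg/ml) or C (>64 μg/ml), read as the lowest concentration preventing visible growth by eye and spectrophotometry. Plates incubated overnight (16–20 h) at 37 °C, inoculum OD 0.09 diluted 1:100 in 2× broth, per NCCLS guidelines.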

Assay [1] concerns Staphylococcus aureus ATCC29213. The assay is described as follows: Minimum Inhibitory Concentration (MIC) testing, broth microdilution, Staphylococcus aureus. It is filed as cell-based. The following applies: Staphylococcus aureus ATCC29213; for MIC: read-out: Staphylococcus aureus MICs Activity. The protocol:
Compounds of this invention were tested for antimicrobial activity by susceptibility testing in liquid media. MICs for compounds against each strain were determined by a broth microdilution method according to the National Committee for Clinical Laboratory Standards (NCCLS) guidelines. (NCCLS. 2000. Methods for dilution antimicrobial susceptibility tests for bacteria that grow aerobically—fifth edition. Approved standard M7-A5. NCCLS, Wayne, Pa.)
Briefly, test compounds are prepared in 100 μl of 1.6% DMSO solution in multiwell plates. Several bacterial colonies from a freshly streaked plate are transferred to an appropriate rich broth, such as Mueller Hinton. The cell suspension is adjusted to an optical density of 0.09 and further diluted 1:100 with warm 2× broth. This cell suspension is dispensed into the wells containing compound solution so that the final volume is 200 μl. The plates are incubated overnight (16-20 hours) at 37° C. and turbidity is scored by eye and quantified spectrophotometrically. The MIC is defined as the lowest concentration inhibiting visible growth.
Some of the compounds of the Examples were also tested for activity against the pathogenic organism Staphylococcus aureus ATCC29213. […] Activities were again scored as ‘A’ if the MIC was ≦8 micrograms/ml, ‘B’ if the MIC was 16 to 64 micrograms/ml and ‘C’ if the MIC was greater than 64 micrograms/ml.
In general terms: Dilution methods test growth across graded concentrations, often in twofold steps.

SMILES strings stand for the structures. Converted amounts (≈) assume the structure as drawn. Bounds are passed on as bounds.

Take `NC(=O)c1c(F)ccc(OCc2cc3ccccc3s2)c1F` [Example 206, 3-(1-Benzothiophen-2-ylmethoxy)-2,6-difluorobenzenecarboxamide]: the MIC in the assay with Bacillus subtilis 168CA was less than 8 µg/mL; in assay [1], greater than 64 µg/mL.

Consider `NC(=O)c1c(F)ccc(OCc2nc(-c3ccc4c(c3)OCO4)no2)c1F` [Example 322, 3-(3-Benzo[1,3]dioxol-5-yl-[1,2,4]oxadiazol-5-ylmethoxy)-2,6-difluoro-benzamide], for which the MIC (in the assay on Bacillus subtilis 168CA; in assay [1]) was less than 8 µg/mL throughout.

With `Cc1cccc(COc2cccc(C(N)=O)c2)c1` [Example 29, 3-[(3-Methylbenzyl)oxy]benzenecarboxamide], the MIC (in the assay with Bacillus subtilis 168CA; in assay [1]) was 16 to 64 µg/mL (≈ 66.3 to 265 µM) throughout.

As for `Cc1cccc(COc2ccc(F)c(C(N)=O)c2F)n1` [Example 197, 2,6-Difluoro-3-[(6-methyl-2-pyridinyl)methoxy]benzenecarboxamide], the MIC (in the assay with Bacillus subtilis 168CA; in assay [1]) was 16 to 64 µg/mL (≈ 57.5 to 230 µM) throughout.

As to `Cc1ccc(COc2ccc(F)c(C(N)=O)c2F)o1` [Example 185, 2,6-Difluoro-3-[(5-methyl-2-furyl)methoxy]benzenecarboxamide], the MIC (in the assay on Bacillus subtilis 168CA; in assay [1]) was greater than 64 µg/mL throughout.

As to `COC(=O)c1cccc(COc2ccc(F)c(C(N)=O)c2F)c1` [Example 108, 3-(3-Carbamoyl-2,4-difluoro-phenoxymethyl)-benzoic acid methyl ester], the MIC (with Bacillus subtilis 168CA; in assay [1]) was 16 to 64 µg/mL (≈ 49.8 to 199 µM) throughout.

`NC(=O)c1c(F)ccc(OCc2nc(-c3ccc(OC(F)(F)F)cc3)no2)c1F` [Example 292]: the MIC (in the assay with Bacillus subtilis 168CA; in assay [1]) was less than 8 µg/mL throughout.

On to `NC(=O)c1c(F)ccc(OCc2cncs2)c1F` [Example 189, 2,6-Difluoro-3-(1,3-thiazol-5-ylmethoxy)benzenecarboxamide], for which the MIC (with Bacillus subtilis 168CA; in assay [1]) was greater than 64 µg/mL each time.

For the compound `CCCCCC#CCCOc1cccc(C(N)=O)c1` [Example 51, 3-(3-Nonynyloxy)benzenecarboxamide], the MIC was less than 8 µg/mL in the assay with Bacillus subtilis 168CA and 16 to 64 µg/mL (≈ 61.7 to 247 µM) in assay [1].

Take `Cc1cc(COc2ccc(F)c(C(N)=O)c2F)no1` [Example 182, 2,6-Difluoro-3-[(5-methyl-3-isoxazolyl)methoxy]benzenecarboxamide]: the MIC (with Bacillus subtilis 168CA; in assay [1]) was greater than 64 µg/mL each time.

In the case of `CCCCCCCCCOc1cccc(C(N)=O)c1` [Example 1, 3-Nonyloxy-benzenecarboxamide], the MIC (with Bacillus subtilis 168CA; in assay [1]) was less than 8 µg/mL throughout.

Consider `CC/C=C\CCCCCOc1cccc(C(N)=O)c1` [Example 61, 3-[(Z)-6-Nonenyloxy]benzenecarboxamide], for which the MIC (in the assay with Bacillus subtilis 168CA; in assay [1]) was less than 8 µg/mL in each case.

Consider `NC(=O)c1cccc(OCCC2CCCCCC2)c1` [Example 28, 3-(2-Cycloheptylethoxy)benzenecarboxamide], for which the values for the MIC (in the assay on Bacillus subtilis 168CA; in assay [1]) were less than 8 µg/mL and greater than 64 µg/mL, respectively.

For the compound `CC(Oc1ccc(F)c(C(N)=O)c1F)c1nc2cc(Cl)ccc2s1` (stereo not drawn) [Example 124, 3-[1-(5-Ohloro-benzothiazol-2-yl)-ethoxy]-2,6-difluoro-benzamide], in the assay on Bacillus subtilis 168CA, the “Bacillus subtilis MICs Activity” value is recorded as “A (‘A’ if the MIC was ≦8 micrograms/ml)”. Moreover, the “Staphylococcus aureus MICs Activity” value in assay [1] is recorded as “A (‘A’ if the MIC was ≦8 micrograms/ml)”.

For the compound `NC(=O)c1c(F)ccc(OCc2cc3ccccc3o2)c1F` [Example 207, 3-(1-Benzofuran-2-ylmethoxy)-2,6-difluorobenzenecarboxamide], the MIC in the assay with Bacillus subtilis 168CA was less than 8 µg/mL; in assay [1], 16 to 64 µg/mL (≈ 52.8 to 211 µM).

As for `NC(=O)c1c(F)ccc(OCc2nc3cc(C4CCCCC4)ccc3s2)c1F` [Example 315], the MIC (in the assay on Bacillus subtilis 168CA; in assay [1]) was less than 8 µg/mL each time.

For the compound `NC(=O)c1c(F)ccc(OCc2noc(-c3ccsc3)n2)c1F` [Example 150, 2,6-Difluoro-3-(5-thiophen-3-yl-[1,2,4]oxadiazol-3-ylmethoxy)-benzamide], the MIC with Bacillus subtilis 168CA was less than 8 µg/mL; in assay [1], 16 to 64 µg/mL (≈ 47.4 to 190 µM).

With `NC(=O)c1c(F)ccc(OCc2nc3cc(Cl)ncc3s2)c1F` [Example 156, 3-(6-Chloro-thiazolo[5,4-c]pyridin-2-ylmethoxy)-2,6-difluoro-benzamide], the MIC (with Bacillus subtilis 168CA; in assay [1]) was less than 8 µg/mL throughout.

For `CCCCCCOc1cccc(C(N)=O)c1F` [Example 165, 2-Fluoro-3-Hexoxy-benzamide], the MIC (in the assay with Bacillus subtilis 168CA; in assay [1]) was less than 8 µg/mL throughout.

Take `COc1ccc(-c2nc(COc3ccc(F)c(C(N)=O)c3F)sc2-c2ccccc2O)cc1` [Example 277, 2,6-Difluoro-3-[5-(2-hydroxy-phenyl)-4-(4-methoxy-phenyl)-thiazol-2-ylmethoxy]-benzamide]: the MIC (with Bacillus subtilis 168CA; in assay [1]) was less than 8 µg/mL in each case.

In the case of `CC(C)=CCC/C(C)=C/CCC(C)COc1cccc(C(N)=O)c1` (stereo not drawn) [Example 55, 3-{[(5E)-2,6,10-Trimethyl-5,9-undecadienyl]oxy}benzenecarboxamide], the MIC (with Bacillus subtilis 168CA; in assay [1]) was less than 8 µg/mL each time.

For the compound `NC(=O)c1c(F)ccc(OCc2nc(-c3ccc(Cl)cc3)c(Br)s2)c1F` [Example 159, 3-[5-Bromo-4-(4-chloro-phenyl)-thiazol-2-ylmethoxy]-2,6-difluoro-benzamide], the MIC (with Bacillus subtilis 168CA; in assay [1]) was less than 8 µg/mL throughout.

As for `COc1ccc(-c2nc(COc3ccc(F)c(C(N)=O)c3F)sc2-c2cccc(O)c2)cc1` [Example 278, 2,6-Difluoro-3-[5-(3-hydroxy-phenyl)-4-(4-methoxy-phenyl)-thiazol-2-ylmethoxy]-benzamide], the MIC (with Bacillus subtilis 168CA; in assay [1]) was less than 8 µg/mL in each case.

For the compound `NC(=O)c1c(F)ccc(OCc2coc(-c3ccccc3)n2)c1F` [Example 132, 2,6-Difluoro-3-(2-phenyl-oxazol-4-ylmethoxy)-benzamide], the MIC (in the assay with Bacillus subtilis 168CA; in assay [1]) was less than 8 µg/mL each time.

For the compound `NC(=O)c1c(F)ccc(OCc2csc(-c3ccc(F)cc3)n2)c1F` [Example 305, 2,6-Difluoro-3-[2-(4-fluoro-phenyl)-thiazol-4-ylmethoxy]-benzamide], the MIC (in the assay with Bacillus subtilis 168CA; in assay [1]) was less than 8 µg/mL in each case.

`NC(=O)c1c(F)ccc(OCc2nc3cc(Br)ccc3s2)c1F` [Example 123, 3-(5-Bromo-benzothiazol-2-ylmethoxy)-2,6-difluoro-benzamide]: the MIC (in the assay with Bacillus subtilis 168CA; in assay [1]) was less than 8 µg/mL each time.

As for `NC(=O)c1c(F)ccc(OCc2nc3cc(Oc4ccccc4)ccc3s2)c1F` [Example 327, 2,6-Difluoro-3-(5-phenoxy-benzothiazol-2-ylmethoxy)-benzamide], the MIC (in the assay on Bacillus subtilis 168CA; in assay [1]) was less than 8 µg/mL in each case.

`COc1cccc(COc2ccc(F)c(C(N)=O)c2F)c1` [Example 116, 2,6-Difluoro-3-(3-methoxybenzyloxy)-benzamide]: the MIC (with Bacillus subtilis 168CA; in assay [1]) was 16 to 64 µg/mL (≈ 54.6 to 218 µM) throughout.

As for `COc1ccc2nc(COc3ccc(F)c(C(N)=O)c3F)ccc2c1` [Example 109, 3-(6-Methoxyquinolin-2-ylmethoxy)-2,6-difluoro-benzamide], the MIC in the assay with Bacillus subtilis 168CA is less than 8 µg/mL; in assay [1] it was 16 to 64 µg/mL (≈ 46.5 to 186 µM).

As to `C=CCCCCCOc1cccc(C(N)=O)c1` [Example 17, 3-(6-Heptenyloxy)benzenecarboxamide], the MIC (with Bacillus subtilis 168CA; in assay [1]) was 16 to 64 µg/mL (≈ 68.6 to 274 µM) in each case.
